From article PMC7251123, “CX-5461 activates the DNA damage response and demonstrates therapeutic efficacy in high-grade serous ovarian cancer” (Nature Communications, 2020)

Legend:
OVCAR3 = experiment: Cell proliferation dose response (IncuCyte ZOOM), 48 h; type: cell-based; settings: Homo sapiens, OVCAR-3; OVCAR3, 48 h; read-out: GI50 (concentration inducing 50% reduction in cell proliferation)
Experimental: (§1) The in vitro effects of CX-5461 on human OVCA cells were evaluated using a panel of 32 established human OVCA cell lines. These cell lines were selected to be representative of a range of histologic OVCA subtypes (Supplementary Table 1). Increasing concentrations (1 nM–10 μM) of CX-5461 were used to assess the concentration of drug that induced a 50% reduction in cell proliferation (GI50) at 48 hours (h). […] There was no statistically significant correlation between TP53 mutation status and sensitivity to CX-5461 (Supplementary Table 1, Fig. 1b). The efficacy of growth inhibition by CX-5461 correlated with a higher rate of basal rDNA transcription in the sensitive compared with the resistant OVCA cell lines (Fig. 1c).
(§2) Fig. 1 Sensitivity of ovarian cancer (OVCA) cell lines to CX-5461. a CX-5461 doses that induce 50% growth inhibition (GI50) at 48 hours. Error bars represent mean ± standard deviation (SD). […]
(§3) For assessing OVCA cells’ sensitivity to CX-5461, dose response curves were generated for each cell line by plating cells in 96-well plates, culturing them for 24 hours and then treating them with either vehicle or increasing concentrations of drug (0, 0.001, 0.003, 0.01, 0.03, 0.1, 0.3, 1, 3, 10 and 30 μM CX-5461) for 48 h. Cell number was assessed using the IncuCyte ZOOM imaging system (Essen BioScience). […] During this time the degree of confluency was measured every 24 h. […]

OV90 = experiment: as above; type: cell-based; settings: Homo sapiens, OV-90; OV90, 48 h; read-out: GI50 (concentration inducing 50% reduction in cell proliferation)
Experimental: as §1, §2, §3

[1] = system: replication forks in OVCAR8 cells; experiment: DNA fibre analysis after 24 h pre-treatment; type: cell-based, human; settings: OVCAR8, 100 nM, 24 h pre-treatment then CldU/IdU labelling
Experimental: Error bars represent mean ± SD. d DNA fibre analysis of OVCAR8 cells pre-treated with 100 nM CX-5461, 100 nM BMN-673 or in combination, washed then sequentially labelled with CldU and IdU as indicated in the schematic (top). Fibres were processed and analyzed as described above. n = 150 replication tracks were analysed over two independent experiments. Error bars represent mean ± SD.
We therefore performed DNA fibre analysis to investigate the effect of CX-5461 on fork stabilization (Fig. 6c and Supplementary Fig. 8A) in OVCAR8 cells. Nascent replication tracks were sequentially labelled with CldU and IdU before treatment with CX-5461 for 3 h. […] We next assessed whether DNA damage induced by CX-5461 treatment affects fork progression by pre-treating cells with CX-5461 for 24 h and then pulse labelled with both analogs (Fig. 6d).

GI50 (OVCAR3): 12 nM
Structure (SMILES): Cc1cnc(CNC(=O)c2c(=O)c3ccc(N4CCCN(C)CC4)nc3n3c2sc2ccccc23)cn1 [CX-5461]
GI50 (OV90): 5170 nM
fork progression / fork length [1]: no effect on fork length
